From patent US8426353B2, “Process for preparing polyurea microcapsules” (Firmenich SA, priority 2008, dated 2013)
Like-named read-outs stand apart in the source and are kept apart here.

Columns and labels:
[1] = GC-MS analysis of perfume leaked out of the capsules during one month storage in concentrated fabric softener; assay type: physicochemical; details: for Percentage of ingredient having leaked out of the capsules during one month storage, % In fabric softener 37° C.: perfume of Example 6 encapsulated per Example 2, capsules at 1.25%; for Percentage of ingredient having leaked out of the capsules during one month storage, % In fabric softener 37° C. / Percentage of perfume having leaked out of the capsules upon one month storage, % In fabric softener at 37° C.: one month at 37° C.; for Percentage of perfume having leaked out of the capsules upon one month storage, % In fabric softener at 22° C. / Percentage of perfume having leaked out of the capsules upon one month storage, % In fabric softener at 37° C.: perfume of Example 9 encapsulated per Example 2, capsules at 1.25%; for Percentage of perfume having leaked out of the capsules upon one month storage, % In fabric softener at 22° C.: one month at 22° C.
Procedure: The concentrated fabric softener base was prepared by admixing the ingredients listed in Table 4, in the amounts indicated.

[2] = GC-MS analysis of perfume leaked out of the capsules during one month storage in concentrated liquid detergent; assay type: physicochemical; details: for Percentage of ingredient having leaked out of the capsules during one month storage, % In concentrated Liquid Detergent 22° C. / Percentage of ingredient having leaked out of the capsules during one month storage, % In concentrated Liquid Detergent 37° C.: perfume of Example 6 encapsulated per Example 2, capsules at 1.25% in Tide 2x Concentrated HE Free; for Percentage of ingredient having leaked out of the capsules during one month storage, % In concentrated Liquid Detergent 22° C. / Percentage of perfume having leaked out of the capsules upon one month storage, % In Concentrated Liquid Detergent at 22° C.: one month at 22° C.; for Percentage of ingredient having leaked out of the capsules during one month storage, % In concentrated Liquid Detergent 37° C. / Percentage of perfume having leaked out of the capsules upon one month storage, % In Concentrated Liquid Detergent at 37° C.: one month at 37° C.; for Percentage of perfume having leaked out of the capsules upon one month storage, % In Concentrated Liquid Detergent at 22° C. / Percentage of perfume having leaked out of the capsules upon one month storage, % In Concentrated Liquid Detergent at 37° C.: perfume of Example 9 encapsulated per Example 2, capsules at 1.25% in Tide 2x Concentrated HE Free
Excerpt: The concentrated liquid detergent base was a commercially available Tide® 2× Concentrated HE Free of perfume & dye (trademark of Procter and Gamble, USA).
The concentrated liquid detergent base was the commercially available Tide® 2× Concentrated HE Free of perfume & dye (trademark of Procter and Gamble, USA).

[3] = LogP of the perfume ingredients
[4] = ingredients of the perfume of Example 9 (Table 9)
[5] = ingredients of the perfume of Example 6 (Table 1)

| Molecule | Percentage of ingredient having leaked out of the capsules during one month storage, % In fabric softener 37° C. [1] | Percentage of perfume having leaked out of the capsules upon one month storage, % In fabric softener at 22° C. [1] | Percentage of perfume having leaked out of the capsules upon one month storage, % In fabric softener at 37° C. [1] | Percentage of ingredient having leaked out of the capsules during one month storage, % In concentrated Liquid Detergent 22° C. [2] | Percentage of ingredient having leaked out of the capsules during one month storage, % In concentrated Liquid Detergent 37° C. [2] | Percentage of perfume having leaked out of the capsules upon one month storage, % In Concentrated Liquid Detergent at 22° C. [2] | Percentage of perfume having leaked out of the capsules upon one month storage, % In Concentrated Liquid Detergent at 37° C. [2] | LogP [3] | LogP [3, 4] | LogP [3, 5] |
| --- | --- | --- | --- | --- | --- | --- | --- | --- | --- | --- |
| CC(C=O)Cc1ccc(C(C)(C)C)cc1 (stereo not shown) [Lilial ®, 3-(4-tert-butylphenyl)-2-methylpropanal] | 3% | 0% | 7% | 1% | 14% | 0% | 18% | 4.36 | 4.36 |  |
| CC(=O)OC1CCC(C(C)(C)C)CC1 (stereo not shown) [Lorysia ®, 4-(1,1-dimethylethyl)-1-cyclohexyl acetate] | 5% |  |  | 1% | 11% |  |  | 4.42 |  |  |
| CC1=CCC(C(C)CC2CCCC2=O)CC1 (stereo not drawn) [Nectalactone, (1′R)-2-[2-(4′-methyl-3′-cyclohexen-1′-yl)propyl]cyclopentanone] | 5% |  |  | 1% | 19% |  |  |  |  | 5.05 |
| C=CCCC(=O)C1=CCCC(C)(C)C1 [Neobutenone ® alpha, 1-(5,5-dimethyl-1-cyclohexen-1-yl)-4-penten-1-one] | 9% |  |  | 1% | 27% |  |  | 4.45 |  |  |
| CC(C)=CC1CC(C)CCO1 (stereo not shown) [Rose oxide] |  | 8% | 68% |  |  | 8% | 92% |  | 3.58 |  |
| CC(=O)OC1CC2CC1C1CC=CC21 (stereo not shown) [Verdyl acetate, Verdyl Acetate] |  | 6% | 10% |  |  | 6% | 80% |  | 2.85 |  |
| CCC(=O)OC1CC2CC1C1CC=CC21 (stereo not shown) [Verdyl propionate] |  | 5% | 8% |  |  | 5% | 51% |  | 3.34 |  |
| CC(=O)OC1CC2CC1C1CC=CC21 (stereo not shown) [Verdylate] | 5% |  |  | 1% | 14% |  |  |  |  | 3.76 |
| C/C=C/C(=O)C1C(C)C=CCC1(C)C (stereo not shown) [δ-Damascone] | 3% | 3% | 10% | 1% | 8% | 3% | 16% |  | 4.13 | 4.13 |
| (1′R,E)-3,3-dimethyl-5-(2′,2′,3′-trimethyl-3′-cyclopenten-1′-yl)-4-penten-2-ol [Polysantol ®] | 2% |  |  | 1% | 6% |  |  |  |  | 5.39 |
| Terpenyl acetate |  | 3% | 17% |  |  | 3% | 37% |  | 4.34 |  |
